# Data published in US20070049593A1 (priority 2004, published 2007).
# pIC50: −log10 of the molar value. Structures can show the parent of a compound that is named as a salt.
# Molecular target: T1, HCV polymerase (Hepatitis C virus genotype 1b, UniProt P26663)
# T1 construct: a region encoding NS5B (J Virol 1991 March, 65(3), 1105-13, 544 amino acids after deletion of 47 amino acids on the C-terminal); 6xHis (C); made in house; host or cells: Escherichia coli
# Experiment: biochemical
# Design: species or system HCV BK strain
# Procedure, shortened: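 His-tagged NS5B (BK strain, 47-aa C-terminal deletion, E. coli-expressed) at 0.5 μg/ml copied 5 μg/ml run-off RNA bearing the HCV 3′ UTR with 2 μM UTP plus [3H]UTP, 50 μM ATP/GTP, in pH 7.5 Tris with 5 mM MgCl2, 25 °C, 90 min. TCA-precipitated RNA was counted and IC50 calculated.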
# T1 sequence (P26663 2420-2963): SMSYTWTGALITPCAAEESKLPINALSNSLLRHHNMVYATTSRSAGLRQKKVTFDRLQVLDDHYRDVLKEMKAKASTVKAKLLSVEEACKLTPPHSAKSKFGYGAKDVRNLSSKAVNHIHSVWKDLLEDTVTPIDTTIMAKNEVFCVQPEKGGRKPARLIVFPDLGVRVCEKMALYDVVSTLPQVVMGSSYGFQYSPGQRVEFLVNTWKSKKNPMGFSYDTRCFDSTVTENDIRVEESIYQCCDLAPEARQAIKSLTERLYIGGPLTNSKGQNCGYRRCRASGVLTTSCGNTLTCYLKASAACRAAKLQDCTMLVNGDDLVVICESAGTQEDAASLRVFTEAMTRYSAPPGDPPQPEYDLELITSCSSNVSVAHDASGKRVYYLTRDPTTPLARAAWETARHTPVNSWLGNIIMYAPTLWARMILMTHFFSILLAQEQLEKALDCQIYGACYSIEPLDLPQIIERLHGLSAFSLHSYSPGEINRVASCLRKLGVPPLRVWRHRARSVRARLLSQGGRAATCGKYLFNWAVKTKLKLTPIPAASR
row,Structure (SMILES),pIC50
1,"CNC(=O)COc1ccc2[nH]c(C3(NC(=O)c4ccc5c(C6CCCCC6)c6n(c5c4)CCOc4cc(OC)ccc4-6)CCC3)nc2c1 [Example 2-527, N-[1-(5-methylcarbamoylmethoxy-1H-benzimidazol-2-yl)cyclobutyl]-12-cyclohexyl-3-methoxy-6,7-dihydro-5-oxa-7a-azadibenzo[a,e]azulene-9-carboxamide]",> 7.00
2,"COc1ccc2c(c1)OCCn1c-2c(C2CCCCC2)c2ccc(C(=O)NC(Cc3cccc(O)c3)C(=O)O)cc21 (centres unmarked) [Example 2-355, 2-[(12-cyclohexyl-3-methoxy-6,7-dihydro-5-oxa-7a-azadibenzo[a,e]azulene-9-carbonyl)amino]-3-(3-hydroxyphenyl)propionic acid]",> 7.00
3,"CCC1CCCN(CCCN2CCn3c(c(C4CCCCC4)c4ccc(C(=O)O)cc43)-c3ccc(Cl)cc32)C1 (centres unmarked) [Example 1-372, 3-chloro-13-cyclohexyl-5-[3-(3-ethylpiperidin-1-yl)propyl]-6,7-dihydro-5H-benzo[5,6][1,4]diazepino[7,1-a]indole-10-carboxylic acid dihydrochloride]",> 7.00
4,"CCN(CCN1CCCC(COC)C1)c1cccc2c1OCCn1c-2c(C2CCCCC2)c2ccc(C(=O)O)cc21 (centres unmarked) [Example 2-274, 12-cyclohexyl-4-{N-ethyl-N-[2-(3-methoxymethylpiperidin-1-yl)ethyl]amino}-6,7-dihydro-5-oxa-7a-azadibenzo[a,e]azulene-9-carboxylic acid dihydrochloride]",> 7.00
5,"COCC(NC(=O)c1ccc2c(C3CCCCC3)c3n(c2c1)CCOc1cc(OC)ccc1-3)C(=O)N1CCC(O)CC1 (centres unmarked) [Example 2-368, N-[2-(4-hydroxypiperidin-1-yl)-1-methoxymethyl-2-oxoethyl]-12-cyclohexyl-3-methoxy-6,7-dihydro-5-oxa-7a-azadibenzo[a,e]azulene-9-carboxamide]",> 7.00
6,"CS(=O)(=O)Nc1ccc(N2CCOCC2)c(COc2ccc3c(c2)OCCn2c-3c(C3CCCCC3)c3ccc(C(=O)O)cc32)c1 [Example 2-17, 12-cyclohexyl-3-[5-methanesulfonylamino-2-(morpholin-4-yl)benzyloxy]-6,7-dihydro-5-oxa-7a-azadibenzo[a,e]azulene-9-carboxylic acid monohydrochloride]",> 7.00
7,"CCN1CCN(C(=O)CN2CCn3c(c(C4CCCCC4)c4ccc(C(=O)NCCO)cc43)-c3ccccc32)CC1 [Example 1-85, 13-cyclohexyl-5-[2-(4-ethylpiperazin-1-yl)-2-oxoethyl]-N-(2-hydroxyethyl)-6,7-dihydro-5H-benzo[5,6][1,4]diazepino[7,1-a]indole-10-carboxamide]",> 7.00
8,"COC(=O)N1CC[C@H](Oc2ccc3c(c2)OCCn2c-3c(C3CCCCC3)c3ccc(C(=O)O)cc32)C1 [Example 2-50, 12-cyclohexyl-3-((S)-1-methoxycarbonylpyrrolidin-3-yloxy)-6,7-dihydro-5-oxa-7a-azadibenzo[a,e]azulene-9-carboxylic acid]",> 7.00
9,"CC(C)(NC(=O)c1ccc2c(C3CCCCC3)c3n(c2c1)CCOc1ccccc1-3)C(=O)Nc1ccc(CO)cc1 [Example 2-195, N-[1-(4-hydroxymethylphenylcarbamoyl)-1-methylethyl]-12-cyclohexyl-6,7-dihydro-5-oxa-7a-azadibenzo[a,e]azulene-9-carboxamide]",> 7.00
10,"CCC1CCCCN1CCN1CCn2c(c(C3CCCCC3)c3ccc(C(=O)O)cc32)-c2ccc(C)cc21 (centres unmarked) [Example 1-333, 13-cyclohexyl-5-[2-(2-ethylpiperidin-1-yl)ethyl]-3-methyl-6,7-dihydro-5H-benzo[5,6][1,4]diazepino[7,1-a]indole-10-carboxylic acid dihydrochloride]",> 7.00
11,"CC(C)(NC(=O)c1ccc2c(C3CCCCC3)c3n(c2c1)CCOc1ccccc1-3)c1nc2cc(Cl)ccc2[nH]1 [Example 2-199, N-[1-(5-chloro-1H-benzimidazol-2-yl)-1-methylethyl]-12-cyclohexyl-6,7-dihydro-5-oxa-7a-azadibenzo[a,e]azulene-9-carboxamide]",> 7.00
